Several values for one entry are separate records, joined by “and”; a condition that tells them apart may be missing. Equal entries are not always repeated.

This data set is described as follows: Particle size analysis by Malvern Mastersizer 2000 (laser diffraction). It is filed as physicochemical. Here is the method: Two lots of 25HC3S sodium salt (Lot #A and Lot #B) were first passed through either 20 mesh or 35 mesh stainless steel sieves for particle size analysis. The particle sizes were further reduced by jet milling and analyzed again. All particle size analyses were determined using a Malvern Mastersizer 2000.
Fluid Energy Model 00 Jet-O-Mizer was used for all jet-milling. Malvern Mastersizer 2000 equipped with a Hydro 2000S dispersion cell was used for particle size analysis.
Approximately 60 mg of API was weighed into a 4 mL screw cap vial and 1 mL water, USP was added to the vial. […] Duplicate samples from each single sample preparation were analyzed.
Particle refractive index was assumed to be 1.53 (not measured by refractometer) and particle absorption index was 0.01. Dispersant (water, USP, presaturated with 25HC3 S) refractive index was 1.33. […] Throughout the measurement, the pump rate was 3000 rpm without sonication. The measurement integration time was 20,000 ms; the numbers of measurements for each sample were 5 with a 20 seconds delay in between two measurements. Analysis model: General purpose

Setting [1] is: 20 mesh sieve then Jet milling 1st pass (1st milling sample, feed rate not controlled), sodium salt.
The mark [2] stands for this setting: 20 mesh sieve then Jet milling 2nd pass, sodium salt.
The mark [3] stands for this setting: 20 mesh sieve then Jet milling 3rd pass, sodium salt.
Where [4] appears, read: Press through 20 mesh sieve with a stainless steel spatula, sodium salt.
The mark [5] stands for this setting: Press through 35 mesh sieve with a stainless steel spatula.
The mark [6] stands for this setting: 20 mesh sieve then Jet milling 1st pass (2nd milling sample, feed rate 1 g/min).

Regarding `C[C@H](CCCC(C)(C)O)[C@H]1CC[C@H]2[C@@H]3CC=C4C[C@@H](OS(=O)(=O)[O-])CC[C@]4(C)[C@H]3CC[C@]12C.[Na+]` [Lot# A, 25HC3S sodium salt], the “d (0.9)” value by setting is: (20 mesh sieve then Jet milling 1st pass (1st milling sample, feed rate not controlled), listed as Lot #A, sodium salt) 5.180 μm; under setting [1], 5.180 μm; under setting [2], 4.026 μm and 4.035 μm; (20 mesh sieve then Jet milling 3rd pass, listed as Lot #A, sodium salt) 2.755 μm; under setting [3], 2.896 μm and 2.755 μm; under setting [4], 18.712 μm and 20.290 μm. Besides, the “d (0.9)” value under setting [5] was 22.195 μm. The “d (0.1)” value under setting [1] amounted to 0.705 μm; the “d (0.1)” value under setting [2] is 0.384 μm and 0.496 μm; the “d (0.1)” value under setting [3] is 0.137 μm and 0.120 μm; the “d (0.1)” value under setting [4] was 2.268 μm and 2.474 μm; the “d (0.1)” value under setting [5] is 2.536 μm. The “d (0.5)” value was 2.091 μm under setting [1]; 1.214 μm and 1.320 μm under setting [2]; 0.664 μm and 0.580 μm under setting [3]; 6.324 μm and 6.905 μm under setting [4]; 7.147 μm under setting [5].

In the case of `C[C@H](CCCC(C)(C)O)[C@H]1CC[C@H]2[C@@H]3CC=C4C[C@@H](OS(=O)(=O)[O-])CC[C@]4(C)[C@H]3CC[C@]12C.[Na+]` [Lot# B, 25HC3S sodium salt], the “d (0.9)” value was 22.07 μm and 16.17 μm (20 mesh sieve then Jet milling 1st pass (1st milling sample, feed rate not controlled), listed as Lot #B, sodium salt); 29.028 μm and 22.070 μm under setting [1]; 9.09 μm (20 mesh sieve then Jet milling 1st pass (2nd milling sample, feed rate 1 g/min), listed as Lot #B, sodium salt); 9.090 μm (20 mesh sieve then Jet milling 1st pass (2nd milling sample, feed rate 1 g/min), sodium salt); 15.878 μm and 13.196^4 μm under setting [2]; 16.17 μm under setting [3]. Also, the “d (0.9)” value under setting [4] is 43.740 μm and 68.250 μm. Also, the “d (0.1)” value reads like this: under setting [1], 2.148 μm and 1.822 μm; under setting [6], 1.253 μm; under setting [2], 1.431 μm and 1.109 μm; under setting [3], 0.976 μm and 0.651 μm; under setting [4], 4.132 μm and 4.947 μm. For the same compound, the “d (0.5)” value is, setting by setting: under setting [1], 6.858 μm and 5.126 μm; under setting [6], 3.172 μm; under setting [2], 4.192 μm and 3.920 μm; under setting [3], 4.251 μm and 2.329 μm; under setting [4], 15.439 μm and 21.437 μm.

The values above are taken from patent publication US20220175798A1, “COMPOSITIONS COMPRISING OXYGENATED CHOLESTEROL SULFATE AND AT LEAST ONE OF POLYALKYLENE GLYCOL, CARBOXYMETHYL CELLULOSE AND POLYOXYLGLYCERIDE” (Durect Corporation, priority 2016, published 2022).
